# Reference: ChEMBL document CHEMBL1201862, “PubChem BioAssay data set” (2004)
# Activity calls are given as the source filed them.
# Experiments:
# [1] = biological target: Cyclin-dependent kinase 5/CDK5 activator 1 (Homo sapiens, UniProt Q00535); assay: blockade of human CDK5 activity – biochemical, cherry-picked samples, set 2, dose response (AID 504545)
# [2] = biological target: T1, Polyadenylate-binding protein 1 (Homo sapiens, UniProt P11940); assay: blockers of PABP interaction with poly(A) – biochemical, fluorescence polarization, […] (AID 2014)
# [3] = biological target: Protein S100-A4 (Homo sapiens, UniProt P26447); assay: human S100A4 peptide interaction inhibition curves – biochemical, fluorescence polarization, cherry-picked hits, dose response (AID 687001); type: functional
# [4] = biological target: Eukaryotic translation initiation factor 4H (Homo sapiens, UniProt Q15056); assay: eIF4H binding inhibition – biochemical, uHTS, fluorescence polarization, translation initiation inhibitor project, primary screen (AID 2012)
# [5] = tested on: HEK293; assay: PMA/Ionomycin induced NF-kB luciferase assay in 293- NF-kB-Luc stable cells. [Related pubchem assays: 1299, 1270, 1295, 1375, 1287, 1281, 1293, 1291, 1289, 1280, 465, 1364, 1282, 1372, 1365, 1370, 1367, 1366, 1269, 1373, 1292, 1290, 1302, 1371, 1283, 1271, 1294, 1374, 1368, 1369 ]; type: functional, cell-based; conditions: Homo sapiens
# [6] = biological target: Luciferin 4-monooxygenase (Photinus pyralis, UniProt P08659); assay: In vitro luciferase assay using purified luciferase. [Related pubchem assays: 1299, 1270, 1295, 1375, 1287, 1281, 1293, 1291, 1289, 1280, 465, 1364, 1282, 1372, 1365, 1370, 1367, 1366, 1266, 1373, 1292, 1290, 1302, 1371, 1283, 1271, 1294, 1374, 1368, 1369 ]
# [7] = tested on: HEK293; assay: SAR Analysis of small molecule inhibitors of T-cell specific antigen receptor-induced NF-kB activation in a HEK-293T cell line using a luminescence assay - Set 2. [Related pubchem assays (depositor defined):AID435003, AID435012, AID489026]; type: functional, cell-based; conditions: Homo sapiens
# [8] = tested on: HEK293; assay: TNF Induced NF-kB Luciferase in 293-NF-kB-Luc Stable Cells. [Related pubchem assays: 1266, 1299, 1269, 1373, 1292, 1290, 1302, 1371, 1283, 1270, 1295, 1271, 1375, 1294, 1374, 1281, 1293, 1291, 1289, 1280, 465, 1368, 1364, 1282, 1372, 1365, 1369, 1370, 1367, 1366 ]; type: functional, cell-based; conditions: Homo sapiens
# [9] = tested on: HEK293; assay: Cytotoxicity assay in HEK293 cells. [Related pubchem assays (depositor defined):AID1266, AID1269, AID1270, AID1271, AID1280, AID1281, AID1282, AID1283, AID1287, AID1289, AID1290, AID1291, AID1292, AID1293, AID1294, AID1295, AID1299, AID1302, AID1364, AID1365, AID1366, AID1367, AID1369, AID1370, AID1371, AID1372, AID1373, AID1374, AID1375, AID1384 …; type: functional, cell-based; conditions: Homo sapiens
# [10] = tested on: HEK293; assay: HEK293T cell viability loss, resazurin readout – resazurin fluorescence, cytotoxicity control for NF-kB activator project, SAR follow-up (AID 493251); type: functional, cell-based; conditions: Homo sapiens
# [11] = tested on: HEK293; assay: PMA/Ionomycin-induced IL-8 production in HEK293- NF-kB-Luc stable cells. [Related pubchem assays: 1299, 1295, 1375, 1287, 1281, 1293, 1291, 1289, 1280, 465, 1364, 1282, 1372, 1365, 1367, 1366, 1266, 1269, 1373, 1292, 1290, 1302, 1371, 1283, 1271, 1294, 1374, 1368, 1369 ]; type: functional, cell-based; conditions: Homo sapiens
# [12] = tested on: Jurkat; assay: SAR Analysis of small molecule inhibitors of T-cell specific antigen receptor-induced NF-kB activation in a Jurkat cell line using a luminescence assay - Set 2. [Related pubchem assays (depositor defined):AID435003, AID435012, AID465]; type: functional, cell-based; conditions: Homo sapiens
# [13] = tested on: Vero; assay: viability of Vero cells under compound – cytotoxicity control for flavivirus capping enzyme inhibitors (AID 588742); type: functional; conditions: Chlorocebus sabaeus
# [14] = tested on: INS1; assay: INS-1E survival protection against cytokine death – cell-based, luminescence, retest, dose response (AID 449756); type: functional; conditions: Rattus norvegicus;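 further: cell death triggered by IL-1 beta plus TNF-alpha plus IFN-gamma mixture; protective hits raise ATP signal compared with cytokine alone wells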
# [15] = biological target: T2, Replicative DNA helicase DnaB (Mycobacterium tuberculosis, UniProt P9WMR3); assay: DnaB intein splicing inhibitors, dose response, biochemical, cell-free fluorescence (AID 449749); type: functional
# T2 sequence (P9WMR3 whole entry): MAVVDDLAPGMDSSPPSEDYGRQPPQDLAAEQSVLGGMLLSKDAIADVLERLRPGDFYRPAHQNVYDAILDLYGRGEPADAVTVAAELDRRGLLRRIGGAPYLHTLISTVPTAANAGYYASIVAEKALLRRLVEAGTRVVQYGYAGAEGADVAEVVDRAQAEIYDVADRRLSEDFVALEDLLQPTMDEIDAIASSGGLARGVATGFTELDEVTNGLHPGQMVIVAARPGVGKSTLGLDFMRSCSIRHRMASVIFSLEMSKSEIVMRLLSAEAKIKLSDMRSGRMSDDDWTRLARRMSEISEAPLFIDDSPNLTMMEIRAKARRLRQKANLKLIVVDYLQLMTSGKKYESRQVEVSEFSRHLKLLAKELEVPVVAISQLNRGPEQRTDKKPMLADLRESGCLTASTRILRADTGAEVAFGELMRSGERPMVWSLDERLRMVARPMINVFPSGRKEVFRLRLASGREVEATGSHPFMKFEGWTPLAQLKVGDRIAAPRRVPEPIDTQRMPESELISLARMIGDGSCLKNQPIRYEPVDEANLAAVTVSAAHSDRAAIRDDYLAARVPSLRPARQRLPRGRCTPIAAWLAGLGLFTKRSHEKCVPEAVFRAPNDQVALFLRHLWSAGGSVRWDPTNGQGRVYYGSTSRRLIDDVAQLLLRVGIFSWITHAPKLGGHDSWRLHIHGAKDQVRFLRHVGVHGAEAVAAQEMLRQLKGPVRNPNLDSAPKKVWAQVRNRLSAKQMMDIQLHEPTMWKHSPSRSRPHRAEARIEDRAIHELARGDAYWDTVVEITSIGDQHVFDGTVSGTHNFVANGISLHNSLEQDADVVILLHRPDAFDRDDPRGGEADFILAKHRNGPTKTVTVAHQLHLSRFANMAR
# [16] = biological target: T3, Protein RecA (Mycobacterium tuberculosis, UniProt P9WHJ3); assay: Fluorescence Cell-Free Homogeneous Dose Retest to Identify Inhibitors of RecA-Intein Splicing Activity. [Related pubchem assays (depositor defined):AID2097, AID2223, AID489010, AID492950]; type: functional
# T3 sequence (P9WHJ3 whole entry): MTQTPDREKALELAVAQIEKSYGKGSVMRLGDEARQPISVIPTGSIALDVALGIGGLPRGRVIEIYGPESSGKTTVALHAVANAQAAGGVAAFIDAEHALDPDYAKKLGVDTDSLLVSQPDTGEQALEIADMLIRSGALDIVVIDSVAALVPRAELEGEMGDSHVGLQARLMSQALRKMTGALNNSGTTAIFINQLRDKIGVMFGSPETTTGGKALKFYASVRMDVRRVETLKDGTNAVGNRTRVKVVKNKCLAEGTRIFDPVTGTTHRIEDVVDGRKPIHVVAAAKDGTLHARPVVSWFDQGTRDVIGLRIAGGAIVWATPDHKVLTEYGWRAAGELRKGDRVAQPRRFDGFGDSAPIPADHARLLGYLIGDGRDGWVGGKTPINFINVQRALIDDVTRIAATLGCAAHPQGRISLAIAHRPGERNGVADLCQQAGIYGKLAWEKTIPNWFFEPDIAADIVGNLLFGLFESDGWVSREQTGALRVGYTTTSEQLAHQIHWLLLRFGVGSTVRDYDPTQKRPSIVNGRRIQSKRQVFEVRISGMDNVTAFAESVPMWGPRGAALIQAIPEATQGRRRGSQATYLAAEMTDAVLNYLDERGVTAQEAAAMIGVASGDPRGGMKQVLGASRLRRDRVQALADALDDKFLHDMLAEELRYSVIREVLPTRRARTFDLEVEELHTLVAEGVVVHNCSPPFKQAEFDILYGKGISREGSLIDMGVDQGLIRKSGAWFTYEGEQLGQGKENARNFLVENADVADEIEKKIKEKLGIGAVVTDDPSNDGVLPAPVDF
# [17] = biological target: T1, Polyadenylate-binding protein 1; assay: MLLE domain peptide-binding blockers, IC50 – biochemical, fluorescence polarization, FITC-PAM2 peptide, dose response (AID 602259); type: functional; conditions: read-out: IC50_Mean
# [18] = biological target: T1, Polyadenylate-binding protein 1; assay: MLLE binding blockers, Cy5 peptide tracer – biochemical, fluorescence polarization, Cy5-PAM2 peptide, secondary, miRNA deadenylation inhibitor project, dose response (AID 602260); type: functional; conditions: read-out: IC50_Mean
# [19] = biological target: Hexokinase HKDC1 (Homo sapiens, UniProt Q2TB90); assay: inhibition of HKDC1 glucose phosphorylation – biochemical, W721R variant, dose response (AID 504729); type: functional
# [20] = tested on: A-375; assay: proliferation inhibition in MITF-low A375 cells – cell-based, cherry-pick samples, set 2, counter-screen for MITF modulator project, dose response (AID 540335); type: functional; conditions: Homo sapiens
# [21] = biological target: T4, Microphthalmia-associated transcription factor (Homo sapiens, UniProt O75030); assay: reducers of TRPM1 reporter luminescence, concentration series – cell-based, SK-MEL-5, cherry-picked, set 3, MITF inhibitor project, dose response (AID 493073); type: functional;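 further: SK-MEL-5 melanoma cells with luciferase driven by the MITF target TRPM1 promoter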
# T4 sequence (O75030 whole entry): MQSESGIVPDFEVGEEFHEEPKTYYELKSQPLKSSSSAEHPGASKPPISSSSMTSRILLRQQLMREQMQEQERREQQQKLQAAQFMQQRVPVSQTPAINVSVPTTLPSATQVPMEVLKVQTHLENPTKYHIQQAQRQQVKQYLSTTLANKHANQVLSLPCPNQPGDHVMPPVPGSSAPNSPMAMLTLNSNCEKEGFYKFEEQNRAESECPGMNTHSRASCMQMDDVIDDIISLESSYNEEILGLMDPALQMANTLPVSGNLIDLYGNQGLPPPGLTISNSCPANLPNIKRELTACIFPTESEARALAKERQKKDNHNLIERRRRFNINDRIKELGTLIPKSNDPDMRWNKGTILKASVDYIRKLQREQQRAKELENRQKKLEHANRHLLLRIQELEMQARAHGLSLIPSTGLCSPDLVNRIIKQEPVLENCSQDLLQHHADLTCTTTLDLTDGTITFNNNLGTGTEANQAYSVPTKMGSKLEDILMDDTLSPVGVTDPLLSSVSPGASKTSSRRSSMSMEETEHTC
# [22] = biological target: FAD-linked sulfhydryl oxidase ALR (Homo sapiens, UniProt P55789); assay: ALR-catalysed DTT oxidation blockers – biochemical, H2O2 detection, luminescence, cherry-pick, dose response (AID 493248)
# [23] = mitochondrial function rescue without frataxin homolog – Friedreich's ataxia, plus single-dose screen, dose response (AID 1465); type: functional;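 further: yeast depleted of Yfh1p frataxin homolog grown on glycerol needing respiration; WST-1 tetrazolium dye reduction as measure of cellular dehydrogenase metabolic activity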
# [24] = biological target: T5, Intestinal-type alkaline phosphatase (Homo sapiens, UniProt P09923); assay: human intestinal alkaline phosphatase activators, dose response, biochemical, luminescence, uHTS hits (AID 463120); type: functional
# [25] = biological target: T5, Intestinal-type alkaline phosphatase; assay: Dose Response confirmation of uHTS hits from a small molecule inhibitors of human intestinal alkaline phosphatase via a luminescent assay. [Related pubchem assays (depositor defined):AID2544, AID2574]; type: functional
# [26] = biological target: G2/mitotic-specific cyclin-B1 (Homo sapiens, UniProt P14635); assay: HeLa cell cycle G2/M accumulation – FACS, mechanism study for Wee1 degradation inhibitor project, late-stage follow-up, panel member Cyclin B Degradation (AID 2088)
# [27] = biological target: Wee1-like protein kinase (Homo sapiens, UniProt P30291); assay: HeLa cell cycle G2/M accumulation – FACS, mechanism study for Wee1 degradation inhibitor project, late-stage follow-up, panel member Wee1 Degradation (AID 2088)
# [28] = biological target: Voltage-gated N-type calcium channel alpha-1B subunit/Amyloid beta A4 precursor protein-binding family A member 1 (Homo sapiens, UniProt Q00975+Q02410); assay: disruptors of Mint-PDZ/N-type channel peptide interaction – biochemical, HTRF, set 2, SAR follow-up (AID 434980); type: functional
# T1 sequence (P11940 whole entry): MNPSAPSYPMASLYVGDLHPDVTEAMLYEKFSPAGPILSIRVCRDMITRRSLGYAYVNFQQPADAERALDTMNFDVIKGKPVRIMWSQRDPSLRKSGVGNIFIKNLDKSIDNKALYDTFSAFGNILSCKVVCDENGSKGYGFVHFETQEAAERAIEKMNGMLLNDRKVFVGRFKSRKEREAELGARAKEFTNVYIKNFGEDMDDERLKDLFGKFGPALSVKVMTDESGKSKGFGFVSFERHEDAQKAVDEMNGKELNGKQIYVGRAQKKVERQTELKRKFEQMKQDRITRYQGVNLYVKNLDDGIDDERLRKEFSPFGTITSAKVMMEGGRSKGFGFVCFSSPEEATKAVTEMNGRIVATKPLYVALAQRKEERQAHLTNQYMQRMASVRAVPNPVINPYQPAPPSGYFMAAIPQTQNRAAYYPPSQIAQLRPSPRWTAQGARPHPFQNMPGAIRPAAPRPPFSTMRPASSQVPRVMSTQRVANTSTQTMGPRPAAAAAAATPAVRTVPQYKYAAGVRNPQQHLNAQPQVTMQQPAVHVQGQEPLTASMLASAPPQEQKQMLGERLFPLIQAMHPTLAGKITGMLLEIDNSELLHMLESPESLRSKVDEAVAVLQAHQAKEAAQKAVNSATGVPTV
# T5 sequence (P09923 whole entry): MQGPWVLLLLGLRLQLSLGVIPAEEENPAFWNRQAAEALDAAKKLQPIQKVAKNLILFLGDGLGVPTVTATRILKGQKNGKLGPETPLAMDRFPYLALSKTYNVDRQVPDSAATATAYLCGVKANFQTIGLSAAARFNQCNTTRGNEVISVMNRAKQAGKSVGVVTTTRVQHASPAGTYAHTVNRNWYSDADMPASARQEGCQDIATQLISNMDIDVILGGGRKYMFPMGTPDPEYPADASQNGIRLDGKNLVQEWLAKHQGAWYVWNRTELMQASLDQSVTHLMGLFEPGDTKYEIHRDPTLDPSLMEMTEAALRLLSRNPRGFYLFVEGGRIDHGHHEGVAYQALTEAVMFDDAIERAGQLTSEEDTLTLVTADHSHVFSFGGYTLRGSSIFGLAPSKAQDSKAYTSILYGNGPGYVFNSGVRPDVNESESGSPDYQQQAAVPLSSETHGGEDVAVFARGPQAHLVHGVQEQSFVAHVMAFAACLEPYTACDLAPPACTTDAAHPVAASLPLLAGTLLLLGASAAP
# Chain of G2/mitotic-specific cyclin-B1 (P14635 whole entry): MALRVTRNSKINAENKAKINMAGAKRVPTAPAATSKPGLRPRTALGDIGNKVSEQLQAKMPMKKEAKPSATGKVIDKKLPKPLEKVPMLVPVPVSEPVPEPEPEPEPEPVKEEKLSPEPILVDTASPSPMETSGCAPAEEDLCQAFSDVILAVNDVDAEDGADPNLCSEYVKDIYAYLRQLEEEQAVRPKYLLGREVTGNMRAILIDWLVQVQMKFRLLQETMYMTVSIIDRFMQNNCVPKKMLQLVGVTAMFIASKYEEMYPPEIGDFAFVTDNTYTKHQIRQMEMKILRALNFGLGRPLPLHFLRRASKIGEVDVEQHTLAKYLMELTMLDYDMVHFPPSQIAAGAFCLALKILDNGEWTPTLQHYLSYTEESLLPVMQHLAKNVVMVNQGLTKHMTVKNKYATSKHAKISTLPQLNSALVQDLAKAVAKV
# Chain of Protein S100-A4 (P26447 whole entry): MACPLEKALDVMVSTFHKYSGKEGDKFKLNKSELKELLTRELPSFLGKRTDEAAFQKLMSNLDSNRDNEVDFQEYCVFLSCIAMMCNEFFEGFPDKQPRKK
# Chain of Wee1-like protein kinase (P30291 whole entry): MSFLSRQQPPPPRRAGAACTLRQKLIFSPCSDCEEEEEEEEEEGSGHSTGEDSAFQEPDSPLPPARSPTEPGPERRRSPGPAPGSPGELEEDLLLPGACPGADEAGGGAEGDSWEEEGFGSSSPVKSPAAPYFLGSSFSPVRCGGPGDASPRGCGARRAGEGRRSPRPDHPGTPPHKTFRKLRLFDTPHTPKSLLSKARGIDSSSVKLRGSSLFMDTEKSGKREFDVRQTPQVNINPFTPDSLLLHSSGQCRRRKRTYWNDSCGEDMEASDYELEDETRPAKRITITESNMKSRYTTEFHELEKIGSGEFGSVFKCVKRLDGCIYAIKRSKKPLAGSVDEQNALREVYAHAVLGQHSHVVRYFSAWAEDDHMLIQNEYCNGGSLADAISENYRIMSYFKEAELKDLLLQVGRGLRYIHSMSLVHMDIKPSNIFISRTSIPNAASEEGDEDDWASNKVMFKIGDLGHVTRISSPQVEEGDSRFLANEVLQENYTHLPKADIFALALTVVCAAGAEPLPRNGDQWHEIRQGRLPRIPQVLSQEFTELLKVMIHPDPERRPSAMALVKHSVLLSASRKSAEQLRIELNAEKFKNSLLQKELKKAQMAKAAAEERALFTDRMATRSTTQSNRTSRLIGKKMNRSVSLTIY
# Chain of Luciferin 4-monooxygenase (P08659 whole entry): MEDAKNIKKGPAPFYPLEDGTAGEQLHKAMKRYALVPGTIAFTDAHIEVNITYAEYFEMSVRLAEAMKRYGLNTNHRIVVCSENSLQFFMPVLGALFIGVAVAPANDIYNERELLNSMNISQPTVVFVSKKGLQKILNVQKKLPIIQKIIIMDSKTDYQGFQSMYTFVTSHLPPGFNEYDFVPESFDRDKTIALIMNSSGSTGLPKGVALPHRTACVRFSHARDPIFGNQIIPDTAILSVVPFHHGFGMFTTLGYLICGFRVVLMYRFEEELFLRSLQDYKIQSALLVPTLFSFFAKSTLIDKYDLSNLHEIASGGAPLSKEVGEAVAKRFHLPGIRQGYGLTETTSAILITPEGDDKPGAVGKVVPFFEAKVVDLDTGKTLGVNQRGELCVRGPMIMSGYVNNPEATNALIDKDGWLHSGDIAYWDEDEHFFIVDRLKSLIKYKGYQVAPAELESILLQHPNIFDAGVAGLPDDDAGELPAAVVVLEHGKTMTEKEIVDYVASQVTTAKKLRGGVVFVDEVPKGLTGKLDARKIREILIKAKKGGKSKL
# Chain of Cyclin-dependent kinase 5/CDK5 activator 1 (Q00535 whole entry): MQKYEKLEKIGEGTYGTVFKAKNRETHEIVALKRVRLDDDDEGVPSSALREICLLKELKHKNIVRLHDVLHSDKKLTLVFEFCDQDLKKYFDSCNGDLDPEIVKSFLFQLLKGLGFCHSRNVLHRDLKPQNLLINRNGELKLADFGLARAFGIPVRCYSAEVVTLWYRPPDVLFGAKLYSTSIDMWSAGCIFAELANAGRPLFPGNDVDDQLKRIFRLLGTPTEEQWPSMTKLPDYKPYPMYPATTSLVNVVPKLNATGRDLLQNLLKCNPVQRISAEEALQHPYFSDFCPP
# Chain of Cyclin-dependent kinase 5/CDK5 activator 1 (Q15078 whole entry, further chain): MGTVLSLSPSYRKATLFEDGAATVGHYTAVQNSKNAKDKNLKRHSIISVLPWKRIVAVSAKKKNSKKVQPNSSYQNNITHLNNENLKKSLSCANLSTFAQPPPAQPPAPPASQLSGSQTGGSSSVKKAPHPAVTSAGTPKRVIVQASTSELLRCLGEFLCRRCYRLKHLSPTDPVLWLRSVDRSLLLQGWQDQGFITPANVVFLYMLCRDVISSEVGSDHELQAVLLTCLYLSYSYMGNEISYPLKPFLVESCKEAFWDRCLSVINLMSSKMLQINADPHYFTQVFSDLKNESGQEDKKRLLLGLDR
# Chain of Hexokinase HKDC1 (Q2TB90 whole entry): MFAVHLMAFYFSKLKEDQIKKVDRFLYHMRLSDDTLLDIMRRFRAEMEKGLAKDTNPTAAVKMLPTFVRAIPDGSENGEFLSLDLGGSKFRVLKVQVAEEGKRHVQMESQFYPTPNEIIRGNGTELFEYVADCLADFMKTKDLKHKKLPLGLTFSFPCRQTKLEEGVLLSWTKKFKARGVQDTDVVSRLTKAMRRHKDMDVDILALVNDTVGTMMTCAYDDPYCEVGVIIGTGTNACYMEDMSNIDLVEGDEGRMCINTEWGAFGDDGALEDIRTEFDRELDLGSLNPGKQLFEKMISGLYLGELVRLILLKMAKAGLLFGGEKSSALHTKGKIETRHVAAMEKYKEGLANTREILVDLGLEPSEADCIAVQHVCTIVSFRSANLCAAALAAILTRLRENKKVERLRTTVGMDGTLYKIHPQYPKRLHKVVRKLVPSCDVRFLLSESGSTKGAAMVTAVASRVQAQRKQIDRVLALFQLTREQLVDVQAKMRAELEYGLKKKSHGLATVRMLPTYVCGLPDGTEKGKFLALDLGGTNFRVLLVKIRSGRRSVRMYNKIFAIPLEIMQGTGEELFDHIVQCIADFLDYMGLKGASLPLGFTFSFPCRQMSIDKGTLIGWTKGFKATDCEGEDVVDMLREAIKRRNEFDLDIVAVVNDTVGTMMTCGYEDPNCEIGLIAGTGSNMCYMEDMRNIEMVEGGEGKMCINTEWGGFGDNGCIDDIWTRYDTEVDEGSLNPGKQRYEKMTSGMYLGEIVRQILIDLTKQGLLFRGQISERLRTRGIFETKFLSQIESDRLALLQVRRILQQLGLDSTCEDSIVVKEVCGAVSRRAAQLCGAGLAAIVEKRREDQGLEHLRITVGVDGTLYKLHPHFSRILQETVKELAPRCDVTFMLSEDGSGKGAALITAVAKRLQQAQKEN
# Chain of FAD-linked sulfhydryl oxidase ALR (P55789 whole entry): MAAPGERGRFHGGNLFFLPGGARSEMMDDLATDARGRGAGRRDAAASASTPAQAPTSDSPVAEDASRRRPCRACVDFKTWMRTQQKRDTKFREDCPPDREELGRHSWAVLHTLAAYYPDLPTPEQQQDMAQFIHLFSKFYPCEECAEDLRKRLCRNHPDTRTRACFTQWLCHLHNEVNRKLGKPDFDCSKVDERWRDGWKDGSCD
compound,measurement,setting,value
COc1ccc(C(=O)c2sc(NC(C)C)nc2N)cc1OC,AC50,[1],90.5 µM (active)
Cc1cc2cc(CNC(=O)Nc3ccc(Cl)c(Cl)c3)ccc2n1C,IC50,[2],4.53 µM (active)
same,AC50,[3],1.74 µM (active)
same,IC50,[4],5.7 µM (active)
CCOc1ccc(NC(=O)c2ccc([N+](=O)[O-])o2)cc1,EC50,[5],2.77 µM (active)
same,EC50,[6],> 8 µM (not active)
same,IC50,[7],39.9 µM (inactive)
same,EC50,[8],> 8 µM (not active)
same,EC50,[9],> 8 µM (inactive)
same,IC50,[10],50.6 µM (inactive)
same,EC50,[11],> 8 µM (not active)
same,IC50,[12],38.9 µM (inactive)
COc1ccc(S(=O)(=O)Nc2ccc(O)c3ccccc23)cc1,CC50,[13],> 40 µM (active)
same,AC50,[14],4.67 µM (active)
same,AC50,[15],0.0824 µM (active)
same,EC50,[16],0.0478 µM (active)
same,IC50,[17],> 66 µM (inactive)
same,IC50,[18],> 66 µM (inactive)
same,IC50,[19],21 µM (inactive)
same,AC50,[20],33.1 µM (active)
same,AC50,[21],9.07 µM (active)
same,AC50,[22],18.4 µM (active)
same,EC50,[23],> 100 µM (active)
O=C(Nc1cccc(-c2cccc(F)c2)c1)C1CCN(C2CCC2)CC1,EC50,[24],> 100 µM (inactive)
same,IC50,[25],> 100 µM (inactive)
Cc1ccc(Nc2cc(C)nn2-c2nc(C)cc(O)n2)cc1,EC50,[26],> 55.7 µM (inactive)
same,EC50,[27],> 55.7 µM (inactive)
O=C(NCCN1CCCCC1)c1cc(-c2ccco2)nc2ccccc12,IC50,[28],> 56.8 µM (inactive)
